US20250368639A1, “SOLID FORMS OF A COMPOUND FOR TREATING OR PREVENTING HYPERURICEMIA OR GOUT” (ATOM THERAPEUTICS CO., LTD, priority 2022, published 2025)
In brackets after ≈: the same amount, converted by molar mass. Like-named read-outs stand apart in the source and are kept apart here.

Legend:
[1] = Dynamic vapor sorption/desorption (DVS); type: physicochemical
Method: Moisture sorption/desorption data were collected on a SMS DVS intrinsic Vapor Sorption Analyzer under a nitrogen purge. The DVS experiment generally includes a moisture sorption step and a moisture desorption step. […] In other words, the sample is considered to have reached an equilibrium between moisture sorption and desorption under the relative humidity when dm/dt≤0.01%. The sample was maintained at the temperature of 25° C. with relative humidity varied from 0% to 95%, and back to 0% at an increment of 5% RH each step.

[2] = Suspensions for animal formulation in 0.5% CMC-Na (XRPD); type: physicochemical; conditions: about 30 mg in 30 ml, sonication
Method: About 30 mg of Form 1, Form 2, and Form 5D were each added into a respective 40 ml glass bottle and mixed with 30 ml of 0.5% CMC-Na solution. The solids were dispersed uniformly in the solution with the aid of sonication. After that, the solids were isolated by centrifugation, dried at room temperature, and the dry solid analyzed with XRPD.

[3] = Solubility in water, buffers and bio-relevant media (37° C., 24 h shaking, HPLC); type: physicochemical; conditions: 37° C., 24 h
Method: The solubility of Form 1, Form 2, Form 5D, Form 6, Form 8, and Form 11 was analyzed in water, 0.1NaqueousHCl, pH4.5 acetate buffer solution, pH6.8 phosphate buffer solution, simulated gastric fluid (SGF), Fasted State Simulated Intestinal Fluid (FaSSIF), and Fed State Simulated Intestinal Fluid (FeSSIF).
About 5 mg or 10 mg of sample was weighed out into each vial and mixed with about 5 ml of medium to form a solution. The target concentration for the potassium salt in water was 2 mg/ml; and the target concentration for all other forms were 1 mg/mL. All samples were kept shaking at 200 rounds per minute (rpm) under 37° C. for 24 hours. The pH value of these samples were determined after shaking for 24 hours. Subsequently, they were centrifuged at the speed of 12000 rpm for 2 mins. The supernatant was diluted with methanol as necessary, and the concentrations were determined by HPLC. When the solubility of potassium salt was tested in water, the supernatant was diluted 100 times, while no other samples were diluted. The HPLC analysis utilizes Agilent Eclipse XDB-C8 4.6*150 mm, 5 μm column at 40° C., a mobile phase of 0.1% TFA: ACN=70:30, an injection volume of 10 μl, a flow rate of 1.0 ml/min, a diluent of methanol, and a detection wavelength of 234 nm.

[4] = Single-dose pharmacokinetic study, oral and intravenous, in SD rats; type: in vivo, SD rat; conditions: for AUC(0-t) / Cmax / MRT last / AUC(0-inf) / clearance / half-life / Vd / Vd/F: male, SD, rat, plasma; for AUC(0-inf): read-out: AUCINF—pred; for clearance: read-out: Cl—pred (converted); for half-life: read-out: HL_Lambda_z (T1/2) (converted); for Vd: read-out: Vz—pred; for Vd/F: read-out: Vz—F—pred
Method: Form 1, Form 2, and Form 5D were each evaluated via a single-dose pharmacokinetic study following oral and intravenous administration in SD rats. […] Form 1, Form 2, and Form 5Dwere evaluated by rat pharmacokinetics study.
Male SD rat was purchased from Shanghai Sippr B&K Laboratory Animals Co., Ltd. The weight was 180 g˜200 g.
20% HP-β-CD was prepared from dissolving20 g of HP-β-CD (from Sigma) in 100 mL purified water. 0.5% CMC-Na was prepared from dissolving 1 g of CMC-Na (from Aladdin) in 200 mL purified water. The solutions were stored at 2-8 degree.
(§1) Group 1:4.95 mg (equivalent to 4.50 mg of anhydrous free base) of Form 1 was weighed out into a 20 ml bottle, and totally dissolved by 0.225 mL DMSO by sonication. After that, 4.275 mL of 20% HP-β-CD was added, mixed well by sonication. Finally, the pH value was adjusted to 7.0 by sodium hydroxide solution. The clear solution was obtained, and the concentration was 1 mg/mL.
Group 2:10.08 mg (equivalent to 9.164 mg of anhydrous free base) of Form 1 was weighed out into a 20 ml bottle, and then 9.164 mL of 0.5% CMC-Na was added. A white suspension was formed after sonicated by ultrasonic cell disruptor, and the concentration was 1 mg/mL.
Group 3:9.47 mg of Form 2 was weighed out into a 20 ml bottle, and then 9.470 mL of 0.5% CMC-Na was added. After sonicated, it was mixed well by homogenizer for 2 minutes. Finally, a white suspension was formed, and the concentration was 1 mg/mL.
Group 4:9.80 mg (equivalent to 8.909 mg of free base) of Form 5Dwas weighed out into a 20 mL bottle, and then 8.909 mL of 0.5% CMC-Na was added. After sonicated, it was mixed well by homogenizer for 2 minutes. Finally, a white suspension was formed, and the concentration was 1 mg/mL.
as §1, with “Group 5:1.94” for “Group 1:4.95”, “to 1.763” for “to 4.50”, “by 0.088” for “by 0.225”, “that, 1.675” for “that, 4.275”, “was 0.2” for “was 1”
The dose of intravenous administration was 1 mg/kg and 5 mg/kg, respectively. The oral dose was 10 mg/kg. Animals were fasted overnight before drug administration. After the drug administration, the rats were fed at the 4 hours.
About 150˜200 μL of blood was collected at the initial time (only intravenous), and at 0.25, 0.5, 1, 2, 4, 6, 8 and 24 h by jugular venipuncture blooding method. EDTA-K2 was selected as anticoagulant. Blood samples were centrifuged within one hour at 6000 rpm for 8 minutes (placed on wet ice before centrifugation). The supernatant was stored at −20° C. for LC-MS/MS analysis.
The computer program Microsoft Office Excel 2007 (Microsoft, USA) was used to process data and graphics. The pharmacokinetic parameters were calculated by WinNolin 6.4 software.

[5] = iv, 1 mg/kg, male SD rats, intravenous 1 mg/kg, Average
[6] = iv, 1 mg/kg, male SD rats, intravenous 1 mg/kg, individual rats 501/502/503 (c1/c2/c3)
[7] = iv, 5 mg/kg, male SD rats, 5 mg/kg (intravenous), Average
[8] = iv, 5 mg/kg, male SD rats, 5 mg/kg (intravenous), individual rats 101/102/103 (c1/c2/c3)
[9] = po, 10 mg/kg, male SD rats, oral 10 mg/kg, Average (Table 9)
[10] = po, 10 mg/kg, male SD rats, oral 10 mg/kg, individual rats 201/202/203 (c1/c2/c3)

CCc1nc2ccccn2c1C(=O)c1cc(Br)c(O)c(C#N)c1 [Form 1, 3-bromo-5-[(2-ethylimidazo[1,2-a]pyridin-3-yl)carbonyl]-2-hydroxybenzonitrile]
DVS (80% RH) ([1]; 25° C., 80% RH): 5.32% | DVS (85% RH) ([1]; 25° C., 85% RH): 5.68% | Moisture absorbed (DVS) ([1]; relative humidity cycled from 0% RH to 5% RH): about 3.4 % by weight | Crystal form after dispersion in 0.5% CMC-Na solution (XRPD) [2]: did not change | Solubility ([3]; 0.1N HCl): 5.0 µg/mL (≈ 13.5 µM) | Solubility in the buffer solution and bio-relevant medium [3]: low solubilities | Solubility ([3]; FaSSIF): 16.6 µg/mL (≈ 44.8 µM) | Solubility ([3]; FeSSIF): 1.9 µg/mL (≈ 5.13 µM) | Solubility ([3]; SGF): 2.9 µg/mL (≈ 7.83 µM) | Solubility ([3]; Water): 9.4 µg/mL (≈ 25.4 µM) | Solubility ([3]; pH 4.5 acetate buffer): 1.0 µg/mL (≈ 2.7 µM) | Solubility ([3]; pH 6.8 phosphate buffer): 19.8 µg/mL (≈ 53.5 µM) | Exposure at 5 mg/kg relative to 1 mg/kg ([4]; SD rats, intravenous administration, 5 mg/kg versus 1 mg/kg): about 5 times | Exposure and bioavailability (words, comparison) ([4]; SD rats, oral administration 10 mg/kg, 10 mg/kg): sufficiently high bioavailability | Cl—F—pred ([4]; male SD rats, oral 10 mg/kg, Average (Table 9)): 2.17 mL/min/kg | F ([4]; male SD rats, oral 10 mg/kg, calculated by intravenous administration of 1 mg/kg, Average (Table 9)): 43.54% | AUC(0-t) [4, 5]: 17400 ng·h/mL | Cmax [4, 5]: 9580 ng/mL | MRT last [4, 5]: 3.65 h | AUC(0-inf) [4, 5]: 17400 ng·h/mL | clearance [4, 5]: 1 mL/min/kg | half-life [4, 5]: 2.9 h | Vd [4, 5]: 0.24 L/kg | AUC(0-t) [4, 6]: 18500 ng·h/mL | Cmax [4, 6]: 7120 ng/mL | MRT last [4, 6]: 3.99 h | AUC(0-inf) [4, 6]: 18500 ng·h/mL | clearance [4, 6]: 0.833 mL/min/kg | half-life [4, 6]: 3.2 h | Vd [4, 6]: 0.25 L/kg | AUC(0-t) [4, 7]: 80200 ng·h/mL | Cmax [4, 7]: 51400 ng/mL | MRT last [4, 7]: 3.44 h | AUC(0-inf) [4, 7]: 80500 ng·h/mL | clearance [4, 7]: 1 mL/min/kg | half-life [4, 7]: 3.08 h | Vd [4, 7]: 0.28 L/kg | AUC(0-t) [4, 8]: 90800 ng·h/mL | Cmax [4, 8]: 55700 ng/mL | MRT last [4, 8]: 3.65 h | AUC(0-inf) [4, 8]: 91100 ng·h/mL | clearance [4, 8]: 0.833 mL/min/kg | half-life [4, 8]: 3.12 h | Vd [4, 8]: 0.25 L/kg | AUC(0-t) [4, 9]: 75600 ng·h/mL | Cmax [4, 9]: 6480 ng/mL | MRT last [4, 9]: 6.51 h | AUC(0-inf) [4, 9]: 76200 ng·h/mL | half-life [4, 9]: 3.16 h | Vd/F [4, 9]: 0.61 L/kg | AUC(0-t) [4, 10]: 71500 ng·h/mL | Cmax [4, 10]: 6030 ng/mL | MRT last [4, 10]: 6.64 h | AUC(0-inf) [4, 10]: 72100 ng·h/mL | half-life [4, 10]: 3.15 h | Vd/F [4, 10]: 0.63 L/kg
